# Assays:
# [1] = test system: CDF1 mice; assay: Repeated administration toxicity test (intraperitoneal); format: in vivo, mouse (CDF1); conditions: for Body weight, Day 0: Day 0 (baseline)
# Method: As the comparative control, test solutions of adriamycin were prepared in the same manner. […] The number with time of survived animals after administration and the average body weights on Days 0, 5, and 10 were determined.
# [2] = test system: cytotoxic T cell induction by allogenic immunization; assay: In vivo mouse cytotoxic T cell induction test; set-up: species or system mouse (C57BL/6)
# Method: A 8-week-old, female C57BL/6 mouse (H-2^b) was immunized intraperitoneally with 0.2 ml of cultured cell line P815 suspension (5×10^7 cells/ml PBS) derived from DBA/2 (H-2^d), and 0.2 to 0.3 ml of 0.1 mg/ml sample was administered intraperitoneally at a dosage of 1 mg/kg body weight/day for 5 days including the day of immunization.
# To measure cytotoxic T cell activity, 100 μl of the effector cell suspension and 100 μl of the target cell suspension were put to each well on a 96-well round-bottomed microplate and incubated at 37° C. for 4 hours, and the cells were centrifuged and the amount of ^51 Cr released into the supernatant was measured and the cytotoxic T cell activity was calculated using the following equation 2:
# Cytotoxic T cell activity=A/B×100 (2)
# A: (radioactivity of effector cells+target cells)-(radioactivity of only target cells)
# B: (radioactivity of target cells treated with 0.1 N HCl)-(radioactivity of only target cells)
# The cytotoxic T cell activity was expressed in terms of lytic unit (LU). One LU is defined as the number of effector cells required for 20% lysis of 2×10^4 target cells, and the result is shown in LU per spleen.
# Similarly, the mouse was immunized and then administered 0.2 to 0.3 ml of 1 mg/ml of the sample (i.e. at a dosage of 10 mg/kg body weight/day) by intraperitoneal administration for 5 days and the cytotoxic activity was determined.
# [3] = test system: P388; assay: Cytotoxicity test on cultured tumor cell line P388 (MTT, 72 h); format: cell-based
# Method: Cultured tumor cell lines P388 and P388/ADR were suspended in RPMI1640 medium containing 10% heat inactivated fetal calf serum (FCS) and 20 μM 2-mercaptoethanol whereby a cell suspension (5×10^4 cells/ml) was prepared.
# 72 hours thereafter, cell growth was measured by a calorimetric assay method using 3-(4,5-dimethyl-2-thiazolyl)-2,5-diphenyl-2H-tetrazolium bromide (MTT) as follows: 20 μl of 2 mg/ml MTT solution was added to each well and the cells were incubated for 4 hours at 37° C. Thereafter, 50 μl of 50% dimethylformamide solution containing 20% sodium dodecyl sulfate was added to each well and allowed to stand, so that the formed violet formazan crystal was dissolved, and its absorbance at 570 nm was measured in a microplate absorbance photometer (Immunoreader) and used as an indicator of the growth.
# Degree of inhibition=[1-(absorbance in presence of sample)/(absorbance in
# absence of sample)]×100 (1)
structure (smiles),measurement,setting,value
COC(CC1C(C)=CCC2C1(C)CCC1C(C)(C)C(O)C(OC3OC(C)C(OC(=O)c4cccc(O)c4)C(OC4OC(CO)C(O)C(O)C4NC(C)=O)C3O)CC12C)C(N)C(=O)O (stereo not shown) [0406TP-1],"Body weight, Day 0",[1]; 1 mg/kg/day i.p. group,22.0 g
same,"Body weight, Day 5",[1]; 1 mg/kg/day i.p.,23.1 g
same,"Body weight, Day 10",[1]; 1 mg/kg/day i.p.,25.0 g
same,"Body weight, Day 0",[1]; 5 mg/kg/day i.p. group,21.8 g
same,"Body weight, Day 5",[1]; 5 mg/kg/day i.p.,23.7 g
same,"Body weight, Day 10",[1]; 5 mg/kg/day i.p.,25.5 g
same,"Body weight, Day 0",[1]; 10 mg/kg/day i.p. group,21.4 g
same,"Body weight, Day 5",[1]; 10 mg/kg/day i.p.,23.6 g
same,"Body weight, Day 10",[1]; 10 mg/kg/day i.p.,25.4 g
same,Cytotoxic T cell activity,[2]; 1.0 mg/kg/day × 5 days i.p.,350 LU/spleen
same,Cytotoxic T cell activity inhibition,[2]; 1.0 mg/kg/day × 5 days i.p.,12%
same,Cytotoxic T cell activity,[2]; 10 mg/kg/day × 5 days i.p.,285 LU/spleen
same,Cytotoxic T cell activity inhibition,[2]; 10 mg/kg/day × 5 days i.p.,38%
same,inhibition of induction of cytotoxic T cells in spleen cells,"[2]; allogenic-immunized mouse, intraperitoneal, in words",inhibit induction of cytotoxic T cells
same,IC50,"[3]; Mus musculus, P388, 72 h, MTT, read-out: IC50 (growth inhibition)",0.65 µg/mL
same,cytotoxicity (antitumor activity) on cultured tumor cells,[3]; in words,strong cytotoxicity

# Source: US5932555A (priority 1997, dated 1999)
